# In patent US20250034089A1, “TETRAHYDROCARBAZOLE COMPOUND, AND PHARMACEUTICAL COMPOSITION AND USE THEREOF” (NAIN BIOTECH (HANGZHOU) CO., LTD., priority 2021, published 2025):
# How the values were obtained:
# Huh7 cells = test: Tumor microspheres cultured in Huh7 cells; assay type: cell-based, human; settings: Huh7, 1 μM, 48 hours
# Procedure: (§1) • 1) Cell sources: cervical cancer cells HeLa and Caski, liver cancer cells Hep3B and Huh7 were all purchased from the Chinese Academy of Sciences cell bank (Shanghai). • 2) Tumor microsphere culture: The specific culture method for tumor microspheres can be found in the literature (Cheng J et al. Tryptophan derivatives regulate the transfer of Oct4 in stem-like cancer cells. Nat Commun. 2015, 6:7209). Each tumor cell was cultured separately in a medium containing 2% B27, 10 ng/ml BFGF, 5 ng/ml EGF, and 10 ng/ml LIF to form CSC rich tumor microspheres. • 3) Cell dosing treatment: HeLa cell lines and Huh7 cell lines were inoculated in a 6-well plate containing the aforementioned culture medium at a density of 200 cells per well, while Hep3B cell lines and Caski cell lines were inoculated in a 6-well plate containing the aforementioned culture medium at a density of 2000 cells per well. KZT-A5 or AH057 at concentrations of 1 μM or 10 μM was added, and the morphology of tumor microspheres was observed, photographed and recorded after 48 hours of treatment.
# HeLa cells [1] = test: Tumor microspheres cultured in HeLa cells; assay type: cell-based, human; settings: 10 μM, 48 hours
# Procedure: as §1
# Caski cells = test: Tumor microspheres cultured in Caski cells; assay type: cell-based, human; settings: 10 μM, 48 hours
# Procedure: as §1
# [2] = test system: HeLa (human cervical cancer cells); test: In vitro proliferation inhibition (CCK-8), HeLa; assay type: cell-based
# Text: (§2) • 1) Cell sources: HeLa (human cervical cancer cells), CaSki (human cervical cancer intestinal metastasis cells), Huh7 (human liver cancer cells), HepG2 (human liver cancer cells), Hep3B (human liver cancer cells) were purchased from the Chinese Academy of Sciences cell bank (Shanghai); LO2 (human normal liver cells) and HcerEpic (human normal uterine epithelial cells) were from ATCC. • 2) Cell culture and passage: The cell culture and passage method is the same as that described in “The inhibitory effect of compounds on the OCT4 protein in tumor stem cells (CSC)”. • 3) Cell dosing treatment: The each type of cells mentioned above was digested, counted, and inoculated in each well of the 96 well cell culture plate (#3988, Corning) at a density of 5000 cells/200 μl culture medium. They were cultured in a cell culture incubator at 37° C. and 5% CO2 for 24 hours to allow the cells to fully adherent to the wall. Then, the original culture medium was replaced with complete culture medium containing gradient diluted KZT-A5 (each concentration with 3 repeated wells) as well as DMSO (#D5879, Sigma Aldrich) solvent control, and they are cultured for additional 72 hours. • 4) Pharmacodynamic test and statistics: First, the morphology of cells treated with the above compounds was observed, photographed and recorded using an inverted phase contrast microscope (X71, Olympus). Then the original culture medium was replaced with phenol red free culture medium containing CCK-8 detection reagent (#E606335, Shanghai Shenggong) respectively, and they are cultured in the incubator for additional 2 hours. Then the OD450 nm absorbance value (OD value) was measured on a multifunctional enzyme-linked immunosorbent assay (168-1130, Bio Rad). After the cells were treated with the test compound, the equations for calculating the cell survival rate or cell growth rate is: survival rate=GD value of the treated group/OD value of the control group×100%; the equations for calculating the growth inhibition rate of compounds on cell proliferation is: inhibition rate=(OD value of control group−OD value of the treated group)/OD value of control group×100%. Further, the IC50 of each compound was calculated in SPSS based on the inhibition rate.
# (§3) • 1) Cell sources: Huh7 (human liver cancer cells), HepG2 (human liver cancer cells), Hep3B (human liver cancer cells), and HeLa (human cervical cancer cells) were all purchased from the Chinese Academy of Sciences cell bank (Shanghai), while LO2 (human normal liver cells) was obtained from ATCC. • 2) Cell culture and passage: The cell culture and passage method is the same as that described in “The inhibitory effect of compounds on human tumor cell lines from different tissue sources (1)”. • 3) Cell dosing treatment: The cell dosing treatment method is the same as that described in “The inhibitory effect of compounds on human tumor cell lines from different tissue sources (1). • 4) Pharmacodynamic test and statistics: The pharmacodynamic test and statistics method is the same as that described in “The inhibitory effect of compounds on human tumor cell lines from different tissue sources (1)”. The IC50 value data of the compound on each type of tumor cells is the average±standard deviation of three wells in one test.
# [3] = test system: CaSki (human cervical cancer intestinal metastatic cells); test: In vitro proliferation inhibition (CCK-8), CaSki; assay type: cell-based; settings: Ca-Ski, 72 hours, CCK-8, average of three wells in one test
# Text: (§4) • 1) Cell sources: HeLa (human cervical cancer cells), CaSki (human cervical cancer intestinal metastasis cells), Huh7 (human liver cancer cells), HepG2 (human liver cancer cells), Hep3B (human liver cancer cells) were purchased from the Chinese Academy of Sciences cell bank (Shanghai); LO2 (human normal liver cells) and HcerEpic (human normal uterine epithelial cells) were from ATCC. • 2) Cell culture and passage: The cell culture and passage method is the same as that described in “The inhibitory effect of compounds on the OCT4 protein in tumor stem cells (CSC)”. • 3) Cell dosing treatment: The each type of cells mentioned above was digested, counted, and inoculated in each well of the 96 well cell culture plate (#3988, Corning) at a density of 5000 cells/200 μl culture medium. […] Then, the original culture medium was replaced with complete culture medium containing gradient diluted KZT-A5 (each concentration with 3 repeated wells) as well as DMSO (#D5879, Sigma Aldrich) solvent control, and they are cultured for additional 72 hours. • 4) Pharmacodynamic test and statistics: First, the morphology of cells treated with the above compounds was observed, photographed and recorded using an inverted phase contrast microscope (X71, Olympus). […] Then the OD450 nm absorbance value (OD value) was measured on a multifunctional enzyme-linked immunosorbent assay (168-1130, Bio Rad). […]
# [4] = test system: Huh7 (human liver cancer cells); test: In vitro proliferation inhibition (CCK-8), Huh7; assay type: cell-based
# Text: as §2, §3
# [5] = test system: HepG2 (human liver cancer cells); test: In vitro proliferation inhibition (CCK-8), HepG2; assay type: cell-based; settings: for IC50: Homo sapiens
# Text: • 1) Cell sources: HeLa (human cervical cancer cells), CaSki (human cervical cancer intestinal metastasis cells), Huh7 (human liver cancer cells), HepG2 (human liver cancer cells), Hep3B (human liver cancer cells) were purchased from the Chinese Academy of Sciences cell bank (Shanghai); LO2 (human normal liver cells) and HcerEpic (human normal uterine epithelial cells) were from ATCC. • 2) Cell culture and passage: The cell culture and passage method is the same as that described in “The inhibitory effect of compounds on the OCT4 protein in tumor stem cells (CSC)”. • 3) Cell dosing treatment: The each type of cells mentioned above was digested, counted, and inoculated in each well of the 96 well cell culture plate (#3988, Corning) at a density of 5000 cells/200 μl culture medium. They were cultured in a cell culture incubator at 37° C. and 5% CO2 for 24 hours to allow the cells to fully adherent to the wall. Then, the original culture medium was replaced with complete culture medium containing gradient diluted KZT-A5 (each concentration with 3 repeated wells) as well as DMSO (#D5879, Sigma Aldrich) solvent control, and they are cultured for additional 72 hours. • 4) Pharmacodynamic test and statistics: First, the morphology of cells treated with the above compounds was observed, photographed and recorded using an inverted phase contrast microscope (X71, Olympus). Then the original culture medium was replaced with phenol red free culture medium containing CCK-8 detection reagent (#E606335, Shanghai Shenggong) respectively, and they are cultured in the incubator for additional 2 hours. Then the OD450 nm absorbance value (OD value) was measured on a multifunctional enzyme-linked immunosorbent assay (168-1130, Bio Rad). After the cells were treated with the test compound, the equations for calculating the cell survival rate or cell growth rate is: survival rate=GD value of the treated group/OD value of the control group×100%; the equations for calculating the growth inhibition rate of compounds on cell proliferation is: inhibition rate=(OD value of control group−OD value of the treated group)/OD value of control group×100%. Further, the IC50 of each compound was calculated in SPSS based on the inhibition rate. […]
# [6] = test system: LO2 (human normal liver cells); test: In vitro proliferation inhibition (CCK-8), LO2; assay type: cell-based
# Text: • 1) Cell sources: HeLa (human cervical cancer cells), CaSki (human cervical cancer intestinal metastasis cells), Huh7 (human liver cancer cells), HepG2 (human liver cancer cells), Hep3B (human liver cancer cells) were purchased from the Chinese Academy of Sciences cell bank (Shanghai); LO2 (human normal liver cells) and HcerEpic (human normal uterine epithelial cells) were from ATCC. • 2) Cell culture and passage: The cell culture and passage method is the same as that described in “The inhibitory effect of compounds on the OCT4 protein in tumor stem cells (CSC)”. • 3) Cell dosing treatment: The each type of cells mentioned above was digested, counted, and inoculated in each well of the 96 well cell culture plate (#3988, Corning) at a density of 5000 cells/200 μl culture medium. They were cultured in a cell culture incubator at 37° C. and 5% CO2 for 24 hours to allow the cells to fully adherent to the wall. Then, the original culture medium was replaced with complete culture medium containing gradient diluted KZT-A5 (each concentration with 3 repeated wells) as well as DMSO (#D5879, Sigma Aldrich) solvent control, and they are cultured for additional 72 hours. • 4) Pharmacodynamic test and statistics: First, the morphology of cells treated with the above compounds was observed, photographed and recorded using an inverted phase contrast microscope (X71, Olympus). Then the original culture medium was replaced with phenol red free culture medium containing CCK-8 detection reagent (#E606335, Shanghai Shenggong) respectively, and they are cultured in the incubator for additional 2 hours. Then the OD450 nm absorbance value (OD value) was measured on a multifunctional enzyme-linked immunosorbent assay (168-1130, Bio Rad). […] Further, the IC50 of each compound was calculated in SPSS based on the inhibition rate. […]
# [7] = test system: HcerEpic (human normal uterine epithelial cells); test: In vitro proliferation inhibition (CCK-8), HcerEpic; assay type: cell-based; settings: Epithelial cell, 72 hours, CCK-8, average of three wells in one test
# Text: as §4
# HeLa cells [8] = test: Clone formation of HeLa cells, single drugs and combination; assay type: cell-based, human; settings: 700 nM KZT-A5, 100 nM SGI-1027, two weeks, compared with DMSO control, FIG. 7
# Text: • 1) Cell source: HeLa cells were purchased from the Chinese Academy of Sciences Cell Bank (Shanghai). • 2) Cell culture and passage: The cell culture and passage method is the same as that described in “Inhibition of OCT4 protein in tumor stem cells (CSCs) by compounds”. • 3) Cell dosing treatment: The cells were inoculated into a 6-well plate containing the aforementioned culture medium at a density of 200 cells per well. They were divided into four groups, and DMSO (as blank control group), 700 nM KZT-A5 (as KZT-A5 single drug group), 100 nM SGI-1027 (as SGI-1027 single drug group), and 700 nM KZT-A5+100 nM SGI-1027 (as combination group) was added respectively. After two weeks, they were photographed, and the number of clones was counted in each group respectively.
compound,measurement,setting,value
COc1cc(/C=C2\CCc3c([nH]c4ccc(C)cc34)C2=O)ccc1O [KZT-A5],inhibitory effect on tumor microspheres compared with AH057,Huh7 cells,more significant inhibitory effect compared with the same concentration of AH057
same,inhibitory effect on tumor microspheres compared with AH057,HeLa cells [1],more significant than that of the control compound AH057
same,inhibitory effect on tumor microspheres compared with AH057,Caski cells,more significant than that of the control compound AH057
same,IC50,"[2]; 72 hours, CCK-8, average of three wells in one test",0.57 µM
same,IC50,"[2]; Homo sapiens, 72 h, CCK-8, average of three wells in one test",< 1 µM
same,IC50,"[2]; Homo sapiens, test (2), average±standard deviation of three wells",0.7 ± 0.01 µM
same,inhibitory effect compared with AH057,[2]; Table 3,comparable to AH057
same,IC50,[3],6.38 µM
same,IC50,"[4]; Homo sapiens, Huh-7, 72 h, Huh7, 72 hours, CCK-8, average of three wells in one test",< 1 µM
same,IC50,"[4]; Homo sapiens, Huh-7, Huh7, test (2), average±standard deviation of three wells",1.42 ± 0.12 µM
same,IC50,"[4]; Huh7, 72 hours, CCK-8, average of three wells in one test",0.8 µM
same,inhibitory effect on viability compared with AH057,"[4]; Huh7, FIG. 6",more significant inhibitory effect
same,inhibitory effect on viability compared with AH057,"[5]; HepG2, FIG. 6",more significant inhibitory effect
same,IC50,"[5]; HepG2, 72 hours, CCK-8, average of three wells in one test",3.13 µM
same,IC50,"[5]; HepG2, test (2), average±standard deviation of three wells",3.16 ± 0.08 µM
same,IC50,"[6]; LO2, 72 hours, CCK-8, average of three wells in one test",82.1 µM
same,IC50,"[6]; LO2, test (2), average±standard deviation of three wells",96.5 ± 13 µM
same,IC50,[7],> 100 µM
same,inhibition of clone formation,HeLa cells [8],significantly inhibits clone formation
